Test results: PubChem BioAssay (NCI)
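Values below derive from 48-hour exposures of cells grown in 96-well plates, with endpoints linearly interpolated between the two concentrations bracketing the appropriate inhibition level. GI50: concentration for 50% inhibition of growth. Definition used: TGI = concentration required for complete inhibition of growth.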

Legend:
Assay in all cases: NCI-60 cell line screen, 48 h
NCI-H460 lung = system: NCI-H460 lung
NCI/ADR-RES ovarian = system: NCI/ADR-RES ovarian
SNB-75 CNS = system: SNB-75 CNS
786-0 renal = system: 786-0 renal
HOP-92 NSCLC = system: HOP-92 NSCLC
SR leukemia = system: SR leukemia
COLO 205 colon = system: COLO 205 colon
OVCAR-3 ovarian = system: OVCAR-3 ovarian
BT-549 breast = system: BT-549 breast
UACC-257 melanoma = system: UACC-257 melanoma
HOP-62 NSCLC = system: HOP-62 NSCLC
TK-10 renal = system: TK-10 renal
CCRF-CEM leukemia = system: CCRF-CEM leukemia
HCT-116 colon = system: HCT-116 colon
HCT-15 colon = system: HCT-15 colon
T-47D breast = system: T-47D breast
NCI-H522 lung = system: NCI-H522 lung
U251 CNS = system: U251 CNS
OVCAR-4 ovarian = system: OVCAR-4 ovarian
A498 renal = system: A498 renal
IGROV1 ovarian = system: IGROV1 ovarian
OVCAR-8 ovarian = system: OVCAR-8 ovarian
SF-539 CNS = system: SF-539 CNS
LOX IMVI melanoma = system: LOX IMVI melanoma
MDA-MB-231 breast = system: MDA-MB-231 breast
SK-MEL-28 melanoma = system: SK-MEL-28 melanoma
SK-MEL-2 melanoma = system: SK-MEL-2 melanoma
MOLT-4 leukemia = system: MOLT-4 leukemia
K-562 leukemia = system: K-562 leukemia

CCOC(=O)/C(=C\c1ccc2ccccc2c1)P(=O)(OCC)OCC
GI50 (NCI-H460 lung): 2.71 µM | TGI (NCI-H460 lung): 9.2 µM | GI50 (NCI/ADR-RES ovarian): 3.15 µM | TGI (NCI/ADR-RES ovarian): 11.2 µM | GI50 (SNB-75 CNS): 2.57 µM | TGI (SNB-75 CNS): 14.8 µM | GI50 (786-0 renal): 2.26 µM | TGI (786-0 renal): 5.61 µM | GI50 (HOP-92 NSCLC): 2.44 µM | TGI (HOP-92 NSCLC): 5.31 µM | GI50 (SR leukemia): 1.69 µM | TGI (SR leukemia): 8.19 µM | GI50 (COLO 205 colon): 2.26 µM | TGI (COLO 205 colon): 4.89 µM | GI50 (OVCAR-3 ovarian): 1.95 µM | TGI (OVCAR-3 ovarian): 4.07 µM | GI50 (BT-549 breast): 2.3 µM | TGI (BT-549 breast): 5.88 µM | GI50 (UACC-257 melanoma): 2.59 µM | TGI (UACC-257 melanoma): 7.14 µM | GI50 (HOP-62 NSCLC): 2.61 µM | TGI (HOP-62 NSCLC): 7.24 µM | GI50 (TK-10 renal): 2.85 µM | TGI (TK-10 renal): 8.97 µM | GI50 (CCRF-CEM leukemia): 1.89 µM | TGI (CCRF-CEM leukemia): 6.51 µM | GI50 (HCT-116 colon): 2.22 µM | TGI (HCT-116 colon): 5.08 µM | GI50 (HCT-15 colon): 1.7 µM | TGI (HCT-15 colon): 4.45 µM | GI50 (T-47D breast): 2.55 µM | TGI (T-47D breast): 9.09 µM | GI50 (NCI-H522 lung): 1.52 µM | TGI (NCI-H522 lung): 3.35 µM | GI50 (U251 CNS): 2.64 µM | TGI (U251 CNS): 7.86 µM | GI50 (OVCAR-4 ovarian): 4.16 µM | TGI (OVCAR-4 ovarian): 20.1 µM | GI50 (A498 renal): 3.73 µM | TGI (A498 renal): 10.9 µM | GI50 (IGROV1 ovarian): 3 µM | TGI (IGROV1 ovarian): 8.94 µM | GI50 (OVCAR-8 ovarian): 3.26 µM | TGI (OVCAR-8 ovarian): 13.2 µM | GI50 (SF-539 CNS): 2.29 µM | TGI (SF-539 CNS): 5.17 µM | GI50 (LOX IMVI melanoma): 1.58 µM | TGI (LOX IMVI melanoma): 3.08 µM | GI50 (MDA-MB-231 breast): 3.57 µM | TGI (MDA-MB-231 breast): 13.4 µM | GI50 (SK-MEL-28 melanoma): 2.95 µM | TGI (SK-MEL-28 melanoma): 8.06 µM | GI50 (SK-MEL-2 melanoma): 2.16 µM | TGI (SK-MEL-2 melanoma): 5.22 µM | GI50 (MOLT-4 leukemia): 2.16 µM | TGI (MOLT-4 leukemia): 6.25 µM | GI50 (K-562 leukemia): 2.73 µM | TGI (K-562 leukemia): 50.8 µM
